# Columns and labels:
# [1] = test system: mouse model; conditions: cited from earlier work
# [2] = test system: EAE mice spleens; test: DNA microarray analysis of EAE mice spleens; format: in vivo
# From the text: (2) Modulation of genes involved in neuroprotection and immune regulation by TSA. a) Microarrays detect protective genes regulated by TSA in EAE mice spinal cords. The inventor pooled RNA from tissues of three animals in each group (TSA treated and vehicle-treated) for DNA microarray analysis. As shown (Table 3), intraperitoneal TSA led to the enhanced expression of mRNAs for the antioxidant glutathione peroxidase (Gpx1) and the neuroprotective insulin-like growth factor 2 (Igf2). […] Intraperitoneal TSA also led to decreased expression in EAE spinal cords of the chemokine receptor CCR6, immunoglobulin V(H)II, the vascular homeostasis-related phospholipase A2, and upregulation of the immunomodulatory factor interferon-α2 (Ifna2), the latter with known beneficial effects in MS patients.
# b) Microarrays detect protective genes regulated by TSA in EAE mice spleens. The inventor had previously shown that HDAC mRNAs are elevated in immune cells after stimulation with mitogens or α-CD3 Ab (Dangond et al., 1998) and that HDAC inhibitors block proliferation (Dangond and Gullans, 1998). HDAC inhibition also downregulates pro-inflammatory molecules, including γ-IFN (Dangond and Gullans, 1998), IL-12 (Saemann et al., 2000), IL-12 receptor (Saemann et al., 2000), B7-1 (Bohmig et al., 1997) and TNF-α (Nancey et al., 2002). […] A known histone deacetylase-binding chaperone, 14-3-3 sigma, is also elevated in spleens.
# Microarrays detect protective genes co-regulated by TSA in EAE mice spinal cords and spleens.
# [3] = test system: spleen tissue from EAE mice; test: Quantitative RT-PCR on spleen tissue of EAE mice; format: in vivo; conditions: TSA-treated EAE mice
# Experimental: FIG. 8—Identification of gene expression changes induced by HDAC inhibitors in vivo, using reverse transcriptase polymerase chain reaction (RT-PCR). CNS and spleen tissue samples from EAE mice were used to isolate RNA. One step real time quantitative RT-PCR (QRT-PCR) was then performed in triplicate for each sample (n=3 per group of mice) with SYBR Green and an ABI Prism 7700 Sequence Detection System (PE Applied Biosystems, Foster City, Calif.).
# d) Quantitative RT-PCR (QRT-PCR) on CNS and spleen tissues from TSA-treated EAE mice detects numerous genes modulated by this HDAC inhibitor. […] QRT-PCR unveiled new CNS effects of TSA (FIG. 8), including upregulation of the neuronal trait genes sodium channel Nav1.2 and dopamine β hydroxylase (Dbh), and downregulation of the pro-apoptotic factors caspase 2 (casp2) and apoptosis inducing factor (Aif). In spleen tissues, QRT-PCR confirmed elevation of Ifna7 and Adipsin and downregulation of Igκ V22 mRNAs, and unveiled downregulation by TSA of multiple inflammatory factors, such as IL-8 receptor, IL-2 receptor, IL-12, and the costimulatory molecule CD28, from pathways implicated in MS (Glabinsk and Ransohoff, 2001; Dangond, 2002).
# [4] = test system: caspases 3 and 9; test: Western analysis of caspases in CNS tissue of EAE mice; format: in vivo
# From the text: FIGS. 7A-B—Densitometry of bands from western analysis of brain tissue proteins isolated from HDAC inhibitor-treated and vehicle-treated mice. […] Activated caspase 9 is decreased by oral sodium phenylbutyrate (SPB) and by intraperitoneal TSA. Both findings correlate with clinical improvement in these animal models.
# Mechanisms of protection by HDAC inhibitors. (1) Decreased caspase activation leading to enhanced neuronal survival. […] Caspase 3 is known to be activated in rat EAE spinal cords (Ahmed et al., 2002), and correlates with retinal ganglion cell loss and optic neuritis-related disability (Meyer et al., 2001). Neuronal overexpression of the anti-caspase factor Bcl-2 ameliorates EAE (Offen et al., 2000). Caspase 3 also has the ability to modulate Bcl2 and activate upstream caspases triggered by Fas (Woo et al., 1999), an apoptotic pathway implicated in EAE (Sabelko et al., 1997). Finally, CNS activation of caspases has been implicated in the progression of Alzheimer's disease (AD) (Pompl et al., 2003). Thus, the inventor proposes that blockade of neuronal caspase activation is a mechanism by which HDAC inhibitors ameliorate neuronal death in these disorders (EAE, ALS and AD).
smiles,measurement,setting,value
"CC(/C=C/C(=O)NO)=C\[C@@H](C)C(=O)c1ccc(N(C)C)cc1 [TSA, Trichostatin A]",immunosuppression,[1],induces immunosuppression
same,"Fold Δ Spleen, Paired box gene 4 (Pax4)","[2]; Table 5, probe set AB010557, i.p. TSA, EAE mice spleen",−2.4 fold
same,"Fold Δ Spleen, Axin","[2]; Table 5, probe set AF009011, i.p. TSA, EAE mice spleen",2.1 fold
same,"Fold Δ Spleen, DNA methyltransferase (Dnmt1)","[2]; Table 5, probe set AF036008, i.p. TSA, EAE mice spleen",−3.2 fold
same,"Fold Δ Spleen, Metaxin homolog","[2]; Table 5, probe set AV108173, i.p. TSA, EAE mice spleen",−4 fold
same,"Fold Δ Spleen, Thromboxane A2 receptor (Tbxa2r)","[2]; Table 5, probe set D10849, i.p. TSA, EAE mice spleen",−4.9 fold
same,"Fold Δ Spleen, Growth differentiation factor (Gdf9)","[2]; Table 5, probe set L06444, i.p. TSA, EAE mice spleen",5.4 fold
same,"Fold Δ Spleen, Neurofilament heavy (Nefh)","[2]; Table 5, probe set M35131, i.p. TSA, EAE mice spleen",2.2 fold
same,"Fold Δ Spleen, Snail homolog 1 (Snail1)","[2]; Table 5, probe set M95604, i.p. TSA, EAE mice spleen",2.9 fold
same,"Fold Δ Spleen, Dishevelled 2 (Dvl2)","[2]; Table 5, probe set U24160, i.p. TSA, EAE mice spleen",−3.6 fold
same,"Fold Δ Spleen, Rearranged in lymphoma (Frat1)","[2]; Table 5, probe set U58974, i.p. TSA, EAE mice spleen",5.4 fold
same,"Fold Δ Spleen, Immunoglobulin H and L variable","[2]; Table 5, probe set U62386, i.p. TSA, EAE mice spleen",−2.5 fold
same,"Fold Δ Spleen, Cyclin D-interacting Dmp1 (Dmtf1)","[2]; Table 5, probe set U70017, i.p. TSA, EAE mice spleen",5.2 fold
same,"Fold Δ Spleen, Neuronal PAS domain 1 (Npas1)","[2]; Table 5, probe set U77967, i.p. TSA, EAE mice spleen",−3.5 fold
same,"Fold Δ Spleen, Phospholipase C-beta-1b (Picb1)","[2]; Table 5, probe set U85714, i.p. TSA, EAE mice spleen",3.7 fold
same,"Fold Δ Spleen, Glutathione peroxidase (Gpx1)","[2]; Table 5, probe set X03920, i.p. TSA, EAE mice spleen",2.3 fold
same,"Fold Δ Spleen, Immunoglobulin kappa chain (1gk-V20)","[2]; Table 5, probe set X16678, i.p. TSA, EAE mice spleen",−2.3 fold
same,"Fold Δ Spleen, Paired box gene 2 (Pax2)","[2]; Table 5, probe set X55781, i.p. TSA, EAE mice spleen",2.1 fold
same,"Fold Δ Spleen, Max binding protein ROX (Mnt)","[2]; Table 5, probe set Y07609, i.p. TSA, EAE mice spleen",−3.5 fold
same,"Fold Change, 14-3-3 sigma","[2]; probe set 96704, spleen, I.P. TSA vs vehicle-treated EAE mice",3.9 fold
same,"Fold Change, Parvalbumin (Pva)","[2]; probe set 96719, spleen, I.P. TSA vs vehicle-treated EAE mice",6.3 fold
same,"Fold Change, IgH variable","[2]; probe set 96970, spleen, I.P. TSA vs vehicle-treated EAE mice",−3.9 fold
same,"Fold Change, Igκ-V22","[2]; probe set 97570, spleen, I.P. TSA vs vehicle-treated EAE mice",−4.4 fold
same,"Fold Change, IgA VDJH","[2]; probe set 99420, spleen, I.P. TSA vs vehicle-treated EAE mice",−2.8 fold
same,"Fold Change, Adipsin (Adn)","[2]; probe set 99671, spleen, I.P. TSA vs vehicle-treated EAE mice",9.0 fold
same,"Fold Change, Galanin receptor 1 (Galr1)","[2]; probe set 99837, spleen, I.P. TSA vs vehicle-treated EAE mice",−4.2 fold
same,"Fold Change, IgE H constant","[2]; probe set 99850, spleen, I.P. TSA vs vehicle-treated EAE mice",−3.1 fold
same,"Fold Change, Kallikrein (Klk)","[2]; probe set 100060, spleen, I.P. TSA vs vehicle-treated EAE mice",2.8 fold
same,"Fold Change, Lactotransferrin (Ltf)","[2]; probe set 101115, spleen, I.P. TSA vs vehicle-treated EAE mice",−8.2 fold
same,"Fold Change, IgG rearranged κ","[2]; probe set 101616, spleen, I.P. TSA vs vehicle-treated EAE mice",−4.5 fold
same,"Fold Change, IgG variable","[2]; probe set 101752, spleen, I.P. TSA vs vehicle-treated EAE mice",−8.2 fold
same,"Fold Change, V kappa and J kappa coding joint","[2]; probe set 101826, spleen, I.P. TSA vs vehicle-treated EAE mice",−4.2 fold
same,"Fold Change, γ-1 Ig Constant","[2]; probe set 101870, spleen, I.P. TSA vs vehicle-treated EAE mice",−5.0 fold
same,"Fold Change, Interferon alpha 7 (Ifna7)","[2]; probe set 102149, spleen, I.P. TSA vs vehicle-treated EAE mice",5.8 fold
same,"Fold Change, IgH gene DJC","[2]; probe set 102843, spleen, I.P. TSA vs vehicle-treated EAE mice",−3.6 fold
same,"Fold Change, Snail homolog","[2]; probe set 103830, spleen, I.P. TSA vs vehicle-treated EAE mice",3.0 fold
same,Adipsin mRNA by QRT-PCR,[3],elevation
same,CD28 mRNA by QRT-PCR,[3],downregulation
same,IL-2 receptor mRNA by QRT-PCR,[3],downregulation
same,IL-8 receptor mRNA by QRT-PCR,[3],downregulation
same,IL-12 mRNA by QRT-PCR,[3],downregulation
same,Ifna7 mRNA by QRT-PCR,[3],elevation
same,Igκ V22 mRNA by QRT-PCR,[3],downregulation
same,"Activated caspase 9, densitometry of western bands, brain tissue",[4]; intraperitoneal TSA vs vehicle-treated mice,decreased
same,activation of caspases 3 and 9 in CNS tissue,"[4]; intraperitoneal TSA, MS (EAE) mice, western analysis",decreased activation of caspases 3 and 9
